Read-outs that look alike come from different tables or passages of the source.
Columns and labels:
HT-29 = assay: Proliferation test, HT-29 cells; format: cell-based; settings: Homo sapiens, linear regression of survival percentage
Protocol: (§1) Cell lines: Human prostate carcinoma (PC-3), human colon carcinoma (HT-29), murine melanoma (B-16) and its drug resistant subclone (B-16 MDR), mouse fibroblasts (3T3), myeloid leukemia (HL 60) and its drug resistant subclone (HL 60 MX2), endometrium cell line (MES SA) and its drug resistant subclone (MES DX5), jurkat T lymphoma and monocyte leukemia (U-937), were used in this study.
(§2) Proliferation of cancer and normal cells: Proliferation was measured by neutral red assay or by a fluorometric assay quantitating DNA content. In the neutral red assay, the neutral red is absorbed by lysosomes, thus causing coloring of living cells. Quantitative analysis is performed by colorimetric assay (ELISA reader at 550 nm). In the fluorometric assay, alamar blue is used as a redox indicator. Alamar blue fluorescence was measured at an excitation wavelength of 544 nm and an emission wavelength of […] (FLUOstar BMG Lab Technologies, Offenburg, Germany).
(§3) The cells were sub-cultured and the tested compounds were added thereto in increasing concentrations. The IC50 values were determined by linear regression of the survival percentage of the cells.

B16 = assay: Proliferation test, B16 melanoma cells; format: cell-based, murine; settings: for IC50: Mus musculus, B16, linear regression of survival percentage
Protocol: as §1, §2, §3

rat myocytes = settings: Wistar, rat
Protocol: (§4) Toxicity: In vitro toxicity was determined by measuring the effect of the tested compounds (either known neuroleptics or the chemical conjugates of the invention) on primary cultures of neurons and whole brain neuron and glia cells obtained from the brains of neonatal mice. In vitro toxicity of perphenazine and its chemical conjugate AN 168 was also determined with rat myocytes. Acute toxicity in vivo as determined by the LD50 was evaluated on 2 months old ICR mice following the administration of a single intraperitoneal bolus-dose of drug.

HL 60 MX2 (MDR) = assay: Proliferation test, HL 60 MX2 (MDR) cells; format: cell-based; settings: Homo sapiens, HL60/MX2; linear regression of survival percentage
Protocol: as §1, §2, §3

mice = assay: Catalepsy in mice (bar between two cages); format: in vivo, mouse; settings: adult male mice, 1.5 mg/kg perphenazine or equimolar dose (FIG. 7a)
Protocol: Young adult male and female mice were purchased from Harlan, Israel. The animals were housed for 4-7 days under controlled conditions prior to experimentation. Experiments were conducted in a double blind procedure. In each experiment various treatment groups (about 10 animals each) were tested.
Catalepsy in mice: The appearance of stereotypic cataleptic behavior in mice following the neuroleptic treatment was measured in two different sets of experiments.
The catalepsy was determined using a system of two cages and a bar therebetween. The mouse was hung in the middle of the bar, and the percentage of animals reaching the target within 2 minutes was monitored 1 hour, 2 hours and 3 hours following the treatment.
The catalepsy was determined using the system described hereinabove. The mouse was hung in the middle of the bar, and the time it took the animal to reach the target was measured.

C6 rat glioma cells [1] = assay: DNA fragmentation in C6 rat glioma cells (propidium iodide flow cytometry); format: cell-based; settings: Cisplatin 30 μM; perphenazine 25 and 50 μM; AN 168 25, 50 μM (FIG. 18)
Protocol: Apoptosis and DNA fragmentation: Fragmentation of cell nuclei was studied by flow cytometric analysis of propidium iodide-stained cells. This analysis was performed using a FACScan (Becton Dickinson, Mountain View, Calif.) equipped with an argon ion laser adjusted to an excitation wavelength of 480 nm and with a Doublet Discrimination Module (DDM). Lysis II (Becton Dickinson) software was used for data acquisition. Apoptotic nuclear changes were evaluated according to the criteria of Nicolletti et al..
The DNA fragmentation was determined by the propidium iodide flow cytometric method described hereinabove.

HL 60 = assay: Proliferation test, HL 60 cells; format: cell-based; settings: Homo sapiens, linear regression of survival percentage
Protocol: as §1, §2, §3

U-937 = assay: Proliferation test, U-937 cells; format: cell-based; settings: Homo sapiens, linear regression of survival percentage
Protocol: as §1, §2, §3

MES SA = assay: Proliferation test, MES SA cells; format: cell-based; settings: Homo sapiens, linear regression of survival percentage
Protocol: as §1, §2, §3

MES SA DX5 (MDR) = assay: Proliferation test, MES SA DX5 (MDR) cells; format: cell-based; settings: Homo sapiens, linear regression of survival percentage
Protocol: as §1, §2, §3

prolactin = assay: Prolactin blood level in rats (enzyme immunometric assay); format: in vivo, rat; settings: i.p.; measured at 0, 60 and 120 min after treatment
Text: Prolactin secretion: Typical neuroleptics induce hyperprolactinemia, which is frequently associated with gallactorehea and impaired gonadal and sexual function. The measurement of the circulatory plasma prolactin level was therefore used as a sensitive biochemical marker for the psychotropic activity of the known neuroleptics and the chemical conjugates of the present invention, following intraperitoneal or oral administration thereof. Thus, blood was collected from the punctured eye orbital of rats under ether anesthesia and the assay was performed using Millennia, rat prolactin enzyme immunometric assay-kit (DPC, USA).

Jurkat T lymphoma cells = assay: Proliferation / viability test, Jurkat T lymphoma cells; format: cell-based; settings: Homo sapiens
Protocol: as §1, §2, §3

rats [2] = assay: Catalepsy in rats, “piano” test, oral administration; format: in vivo, rat; settings: oral, 10 and 20 mg/kg perphenazine or equimolar doses of conjugate
Protocol: To this end, the induced catalepsy, the prolactin blood levels and the animal behavior were measured as described hereinabove, following oral administration of either AN 168 or perphenazine alone to rats. Animals, divided 5 per cage, were treated by oral administration of perphenazine or AN-168 dissolved in 1% lactic acid. Control animals received vehicle (lactic acid) only.
The catalepsy induced by oral administration of various concentrations of AN 168 and perphenazine was measured by the “wall” test and the “piano” test described hereinabove. The time course of catalepsy was measured 4-24 hours following oral administration of 2.5, 5, 10 and 20 mg/kg perphenazine and respective equimolar doses of 3.5, 7, 14 and 28 mg/kg AN-168. The total catalepsy represents the sum of average catalepsy per treated group during the 4-24 hours of follow-up.

rats [3] = assay: Behavioral criteria: sedation and mobility score in rats; settings: score 0-3; for sedation and mobility score, 30 min / sedation and mobility score, 60 min / sedation and mobility score, 90 min / sedation and mobility score, 120 min / sedation and mobility score, 180 min / sedation and mobility score, 240 min: i.p., 5 mg/kg perphenazine, 7.5 mg/kg fluphenazine or equimolar conjugate; for Sedation score: oral, 4-6 hours after treatment
Protocol: The effect of the administration of the tested compound on animals behavior was measured by evaluating the degree of animal sedation and mobility following the treatment described hereinabove, using a score of from 0 to 3. A score of 0 represents active and mobile animals, 1 represents calm and mobile animals, 2 represents calm and immobile animals and 3 represents completely ataxic and non-alert animals.

3T3 = assay: Proliferation test, 3T3 fibroblasts; format: cell-based; settings: Mus musculus, NIH3T3; linear regression of survival percentage
Protocol: as §1, §2, §3

C6 rat glioma cells [4] = assay: Viability of C6 rat glioma cells (neutral red); format: cell-based; settings: Rattus norvegicus, Glioma cell; 24 hours treatment, neutral red, up to 100 μM (FIG. 14)
Protocol: as §2
The cells were sub-cultured and the tested compounds were added thereto in increasing concentrations, up to 100 μM.

PC-3 = assay: Proliferation test, PC-3 cells; format: cell-based; settings: Homo sapiens, linear regression of survival percentage
Protocol: as §1, §2, §3

[5] = Acute toxicity in vivo (LD50) in mice; settings: ICR, mouse, in vivo, ip
Protocol: as §4
(§5) The in vivo toxicity of perphenazine and AN 167 was evaluated following the intraperitoneal administration of a single dose thereof to mice.

rats [6] = settings: rat, in vivo, ip, 5 mg/kg
Protocol: (§6) Animals: Young adult male rats (150-230 grams) were purchased from Harlan (Israel). Animals were divided 2-5/cage and housed in controlled conditions in the animal room for a week prior to the experiments. The experiments were conducted with naive animals, in a double blind procedure. In each experiment various treatment groups (about 5-10 animals each) were tested.
(§7) Catalepsy in rats: The manifestation of the extrapyramidal adverse effects induced by typical neuroleptics was evaluated by the appearance of stereotypic cataleptic behavior in rats following the neuroleptic treatment. Catalepsy was determined by two methods: (i) by measuring the time it took an animal hanging on a cage wall to move its hind legs and reach a flat surface (the “wall” test); and (ii) rats were placed on a flat surface with their anterior limbs leaning on a flat bar (5.5 cm height) resembling a piano playing position. Catalepsy was determined by the time it took an animal to descend and reach the flat surface (the “piano” test). The maximum time of follow up was 2 minutes and these measurements were performed hourly and individually for each animal. These tests provide an assessment of central dopamine (DA) blocking activity and are acceptable criteria for extrapyramidal symptoms induced by anti-psychotic drugs [10].
(§8) A control animals group was treated with the vehicle (lactic acid) only.

B16 MDR = assay: Proliferation test, B16 MDR cells; format: cell-based, murine; settings: Mus musculus; linear regression of survival percentage
Protocol: as §1, §2, §3

Normal rat fibroblasts = assay: Proliferation test, normal rat fibroblasts; format: cell-based; settings: Fibroblast, linear regression of survival percentage
Protocol: The primary cultures of rat fibroblasts were obtained from neonatal rats using known procedures.
as §2, §3

rats [7] = assay: Catalepsy in rats, “wall” test
Protocol: as §6, §7, §8

ICR mice = assay: Acute toxicity in vivo (LD50) in mice; settings: single intraperitoneal dose, compared with perphenazine (FIG. 21)
Protocol: as §4, §5

[8] = linear regression of survival percentage, read-out: IC50, JURKAT

OCCN1CCN(CCCN2c3ccccc3Sc3ccc(Cl)cc32)CC1 [Perphenazine, perphenazine, reference compound]
IC50 (HT-29): 8.85 ± 2.7 µM | IC50 (B16): 12.5 ± 1.29 µM | decrease in cells viability (rat myocytes): 20% | IC50 (HL 60 MX2 (MDR)): 22.6 µM | catalepsy: percentage of animals reaching the target within 2 minutes (mice): higher catalepsy | DNA fragmentation (C6 rat glioma cells [1]): induced a dramatically increase in DNA fragmentation | IC50 (HL 60): 19.8 µM | IC50 (U-937): 21.3 µM | IC50 (MES SA): 15.3 µM | IC50 (MES SA DX5 (MDR)): 16.2 µM | time at which prolactin blood level peaked (prolactin): 60 min | IC50 (Jurkat T lymphoma cells; alamar blue method (FIG. 15), read-out: IC50, Jurkat T lymphoma cells viability): 16 µM | IC50 (Jurkat T lymphoma cells; [8]): 11.3 µM | muscular rigidity and tachypnea (rats [2]): muscular rigidity and tachypnea were observed | sedation and mobility score, 30 min (rats [3]): 1 | sedation and mobility score, 60 min (rats [3]): 2 | sedation and mobility score, 90 min (rats [3]): 2 | sedation and mobility score, 120 min (rats [3]): 3 | sedation and mobility score, 180 min (rats [3]): 2 | sedation and mobility score, 240 min (rats [3]): 2 | Sedation score (rats [3]; 2.5 mg/kg): 0 | Sedation score (rats [3]; 5 mg/kg): 1 | Sedation score (rats [3]; 10 mg/kg): 2 | Sedation score (rats [3]; 20 mg/kg): 3 | IC50 (3T3): 26.6 µM | IC50 (C6 rat glioma cells [4]): 19.2 µM | IC50 (PC-3): 23.1 ± 2.3 µM | LD50 at 2 weeks [5]: 109 mg/kg | time at which catalepsy peaked (rats [6]; male): 2 h | total catalepsy (rats [6]): catalepsy was induced | IC50 (B16 MDR): 18.4 ± 5.4 µM

CCCC(=O)OCCN1CCN(CCCN2c3ccccc3Sc3ccc(Cl)cc32)CC1 [AN-167, Perphenazine Butyrate]
IC50 (HT-29): 13.3 ± 2.4 µM | IC50 (B16): 17.3 ± 4.5 µM | effect on the proliferation of B16 murine melanoma cells (B16; representative experiment (FIG. 13)): relatively active as anti-proliferative drugs | IC50 (Normal rat fibroblasts): 31.6 µM | IC50 (HL 60 MX2 (MDR)): 19.9 µM | IC50 (HL 60): 17.3 µM | IC50 (U-937): 23.3 µM | IC50 (MES SA): 17.2 µM | IC50 (MES SA DX5 (MDR)): 20.9 µM | time at which prolactin blood level peaked (prolactin): 60 min | IC50 (Jurkat T lymphoma cells; [8]): 11.4 µM | sedation and mobility score, 30 min (rats [3]): 0 | sedation and mobility score, 60 min (rats [3]): 1 | sedation and mobility score, 90 min (rats [3]): 1 | sedation and mobility score, 120 min (rats [3]): 2 | sedation and mobility score, 180 min (rats [3]): 2 | sedation and mobility score, 240 min (rats [3]): 2 | average of total catalepsy as percentage of the perphenazine-induced catalepsy (rats [7]; equimolar doses, four independent experiments (FIG. 6)): lower catalepsy as compared with perphenazine | induced catalepsy, SAR studies (rats [7]; i.p., 5 mg/kg perphenazine and equimolar conjugates, compared with perphenazine (FIG. 2)): significant reduction of the induced catalepsy | total catalepsy (rats [7]; i.p., 5 mg/kg perphenazine and equimolar conjugates, sum of determinations at 0, 60, 120 min (FIG. 1a)): did not induce catalepsy at all | total catalepsy (rats [7]; i.p., 5 mg/kg perphenazine, 7.5 mg/kg fluphenazine, equimolar conjugates, sum 0-420 min, normalized to parent drug (FIG. 3a)): reduced catalepsy significantly | time course of catalepsy (rats [7]; i.p., over a period of 7 hours (FIGS. 4a, 4b)): reduced catalepsy as compared with perphenazine | IC50 (3T3): 21.7 µM | IC50 (PC-3): 49.1 µM | time course of mortality (ICR mice): delayed | LD50 at 2 weeks [5]: 120 mg/kg | IC50 (B16 MDR): 41.5 ± 1.8 µM

Source: patent US8168628B2, “Conjugated psychotropic drugs and uses thereof” (Ramot at Tel-Aviv University Ltd., priority 2001, dated 2012)
